Here are results for 3 compounds from patent US6432962B1, “Benzophenones as inhibitors of IL-1β and TNF-α” (Leo Pharmaceutical Products Ltd. A/S, priority 2000, dated 2002).

The logP is the decadic logarithm of the partition coefficient of the neutral form, usually between octanol and water. The term Log P denotes the decadic logarithm of the partition coefficient of the neutral form, usually between octanol and water. Low values mean lower lipophilicity, high ones higher lipophilicity.

Data set [1] has as its system IL-1β secretion, LPS stimulated peripheral blood mononuclear cells. In words: Inhibition of IL-1β secretion from LPS stimulated peripheral blood mononuclear cells. Type of data set: cell-based. Conditions: LPS stimulated human PBMC, 18 hours, ELISA; read-out: Inhibition of cytokines in vitro, median inhibition concentration (IC50), IL-1β. Here is the method:
(§1) To study the effect of the compound of the present invention in vitro the inhibition of the IL-1β and TNF-α secretion was measured using the following procedure: Cytokine production was measured in the media from lipopolysaccharide (LPS) stimulated peripheral blood mononuclear cells. The mononuclear cells were isolated from human peripheral blood by Lymphoprep® (Nycomed, Norway) fractionation and suspended in RPMI 1640 (growth medium) with foetal calf serum (FCS, 2%), at a concentration of 5×10^5 cells/ml. The cells were incubated in 24-well tissue culture plates in 1 mL aliquots. Test compounds were dissolved in dimethylsulfoxide (DMSO, 10 mM) and were diluted with the medium. Compounds were added to the cells for 30 minutes, then LPS ([…] final concentration) was added. The plates were incubated for 18 hours, and the concentration of IL-1β and TNF-α in the medium was determined by enzyme-linked immunosorbent assays. The median inhibitory concentrations (IC50) of the compounds were calculated.
Background: ELISA stands for enzyme-linked immunosorbent assay.

Data set [2] has as its target T1, p38α MAP kinase (Homo sapiens, UniProt Q16539).
T1 construct: made in house; host or cells: COS-1 cells (transient co-transfection, anti-FLAG M2 immunoprecipitation)
In words: p38α MAP kinase assay. Type of data set: biochemical. To be noted: immunoprecipitated FLAG-p38α from COS-1 cells, GST-ATF-2 substrate; read-out: IC50 values for the inhibition of p38α MAP kinase, mean concentration.
Experimental: Transient Expression of COS-1 Cells
On day one COS-1 cells were seeded in 143 cm^2 petridish with a density of 2×10^4 cells/cm^2 in growth medium. At day 2 the cells were co-transfected with 5 μg (total) of experimental plasmid DNA, expressing the FLAG-p38α and FLAG-MKK6(EE). The plasmids were introduced into the COS-1 cells in serum-free medium using DOTAP™ (Boehringer-Mannheim, Mannheim, Germany). Plasmid DNA was prepared and purified using the QIAGEN EndoToxin-free Maxiprep-500 kit (Hilden, Germany). Briefly, DNA and DOTAP™ were mixed for exactly 15 min. at 37° C. in the CO2 incubator. The transfection-mixture was hereafter transferred to a 15-mL falcon-tube and transfection-medium (DMEM with L-Glutamine and Pen./Strep. but without serum) was added to the transfection-mixture, followed by addition to the cell-monolayer. After 4 hours of incubation with DOTAP™ and plasmids, the medium containing double amount of serum was added to the cells bringing the final concentration of serum up to 10%. […]
The reaction was allowed to proceed for 30 min. at 30° C., and it was stopped by adding 40 μl of 2×SDS-sample buffer to the kinase reaction. […] The dried SDS-PAGE gel was exposed to a Phospho-Imager screen and the radioactive PHAS-1 bands were quantified by the STORM860 Phospho-Imager (Molecular Dynamics, Sunnyvale, Calif., USA) using the ImageQuaNT software.

For data set [3], the system named is TNF-α secretion, LPS stimulated peripheral blood mononuclear cells. Description: Inhibition of TNF-α secretion from LPS stimulated peripheral blood mononuclear cells. It is filed as cell-based. To be noted: LPS stimulated human PBMC, 18 hours, ELISA; read-out: Inhibition of cytokines in vitro, median inhibition concentration (IC50), TNF-α. Here is the method: as §1

A short description of data set [4]: Log P of the tested compounds. Type of data set: physicochemical.
Data set [5] has as its system Human polymorphonuclear (PMN) granulocytes, superoxide anion generation. In words: Inhibition of PMN superoxide secretion (ferricytochrome C reduction). It is filed as cell-based. To be noted: human PMN primed with TNF-α, fMLP stimulated; read-out: Inhibition of PMN-superoxide production in vitro, median inhibition concentration (IC50). The procedure:
The compounds of the present invention also show similar activities in the ability to inhibit PMN (polymorphonuclear) superoxide secretion which is also indicative of potentially useful anti-inflammatory drugs. The compounds were tested using the following procedure: Human polymorphonuclear (PMN) granulocytes were isolated from human blood by dextran sedimentation, Lymphoprep® fractionation and hypotonic lysis of contaminating erythrocytes. Superoxide anion generation was measured as the superoxide dismutase inhibitable reduction of ferricytochrome C (Madhu, S. B. et al, Inflammation, 16, 241, (1992)). The cells were suspended in Hanks' balanced salt solution, and incubated for 10 minutes at 37° C. with test compounds. The cells were primed by the addition of TNF-α (3 ng/mL final concentration) for 10 minutes, and then ferricytochrome C, (final concentration 750 μg/mL), bovine serum albumin (BSA, final concentration 1 mg/mL) and formylmethionyl-leucyl-phenylalanine (fMLP, final concentration 10^-7 M) were added for 3 minutes. The cells were chilled on ice, and were spun down. The optical densities in the cell-free supernatant was measured in a spectrophotometer. The median inhibitory concentration (IC50) of the compounds was calculated.

SMILES strings stand for the structures.

T1 sequence (Q16539 whole entry): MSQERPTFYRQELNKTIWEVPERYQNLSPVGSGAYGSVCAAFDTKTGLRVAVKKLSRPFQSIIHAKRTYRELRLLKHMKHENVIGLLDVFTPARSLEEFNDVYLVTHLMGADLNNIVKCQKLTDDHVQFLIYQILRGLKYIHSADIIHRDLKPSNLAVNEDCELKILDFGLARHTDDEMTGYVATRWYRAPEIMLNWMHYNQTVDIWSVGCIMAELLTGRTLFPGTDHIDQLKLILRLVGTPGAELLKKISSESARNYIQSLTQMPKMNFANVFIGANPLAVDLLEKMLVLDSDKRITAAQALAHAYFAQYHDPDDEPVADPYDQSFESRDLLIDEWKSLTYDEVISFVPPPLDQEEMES

For the compound `Cc1ccccc1C(=O)c1ccc(Nc2cncc3ccccc23)cc1Cl` [Compound 114, 2-Chloro-4-(4-isoquinolylamino)-2′-methylbenzophenone], the IC50 came to 0.031 µM in data set [1], 0.0128 µM in data set [2], 0.005 µM in data set [3] and 0.015 µM in data set [5]. The compound further registered a logP in data set [4] of 4.2.

In the case of `Cc1ccccc1C(=O)c1ccc(Nc2c[n+]([O-])cc3ccccc23)cc1Cl` [Compound 128, 2-Chloro-4((4-isoquinolyl-N-oxide)amino)-2′-methylbenzophenone], the IC50 in data set [1] came to 0.0158 µM; in data set [3] it was 0.0031 µM; in data set [5], 0.0126 µM. Moreover, the lipophilicity (Log P) in data set [4] stood at 4.4.

As to `Cc1ccccc1C(=O)c1ccc(Nc2ccccc2N)cc1Cl` [Ref. comp., 4-(2-aminophenylamino)-2-chloro-2′-methylbenzophenone, reference compound], the IC50 was determined as 0.013 µM in data set [1], 0.0071 µM in data set [3] and 0.005 µM in data set [5]. In data set [4], the logP is 4.9.
